In one assay the target is Casein kinase I. Description: Inhibition of Casein kinase I. It counts as protein assay.
Assay [1] addresses c-Jun N-terminal kinase, JNK (Homo sapiens, UniProt P45983+P53779+P45984). Nature of the assay: Inhibition of c-Jun N-terminal kinase. The assay is classed as protein assay.
The target of assay [2] is T1, Protein kinase C epsilon type (Homo sapiens, UniProt Q02156).
T1 sequence (Q02156 whole entry): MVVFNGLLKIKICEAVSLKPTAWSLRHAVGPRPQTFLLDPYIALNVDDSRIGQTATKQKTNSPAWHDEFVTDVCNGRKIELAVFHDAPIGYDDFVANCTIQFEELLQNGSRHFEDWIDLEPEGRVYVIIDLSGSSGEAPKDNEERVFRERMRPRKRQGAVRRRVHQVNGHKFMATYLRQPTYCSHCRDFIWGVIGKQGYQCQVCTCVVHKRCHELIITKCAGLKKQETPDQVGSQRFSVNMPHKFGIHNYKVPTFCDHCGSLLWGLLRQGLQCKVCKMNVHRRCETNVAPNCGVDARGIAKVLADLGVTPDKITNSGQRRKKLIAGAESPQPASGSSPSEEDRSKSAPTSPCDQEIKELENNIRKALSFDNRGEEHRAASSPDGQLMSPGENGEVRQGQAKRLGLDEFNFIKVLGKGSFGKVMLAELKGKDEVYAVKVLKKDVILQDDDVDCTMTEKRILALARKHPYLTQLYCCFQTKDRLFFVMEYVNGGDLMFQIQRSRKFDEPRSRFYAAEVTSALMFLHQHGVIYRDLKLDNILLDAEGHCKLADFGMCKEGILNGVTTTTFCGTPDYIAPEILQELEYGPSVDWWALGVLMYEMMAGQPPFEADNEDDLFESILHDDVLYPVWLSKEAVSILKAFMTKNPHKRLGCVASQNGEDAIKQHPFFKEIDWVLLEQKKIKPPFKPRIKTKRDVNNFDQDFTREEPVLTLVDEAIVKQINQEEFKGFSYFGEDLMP
Description: Inhibition of protein kinase C epsilon.

Assay [3] concerns the target T2, Protein kinase C zeta type (Homo sapiens, UniProt Q05513).
T2 sequence (Q05513 whole entry): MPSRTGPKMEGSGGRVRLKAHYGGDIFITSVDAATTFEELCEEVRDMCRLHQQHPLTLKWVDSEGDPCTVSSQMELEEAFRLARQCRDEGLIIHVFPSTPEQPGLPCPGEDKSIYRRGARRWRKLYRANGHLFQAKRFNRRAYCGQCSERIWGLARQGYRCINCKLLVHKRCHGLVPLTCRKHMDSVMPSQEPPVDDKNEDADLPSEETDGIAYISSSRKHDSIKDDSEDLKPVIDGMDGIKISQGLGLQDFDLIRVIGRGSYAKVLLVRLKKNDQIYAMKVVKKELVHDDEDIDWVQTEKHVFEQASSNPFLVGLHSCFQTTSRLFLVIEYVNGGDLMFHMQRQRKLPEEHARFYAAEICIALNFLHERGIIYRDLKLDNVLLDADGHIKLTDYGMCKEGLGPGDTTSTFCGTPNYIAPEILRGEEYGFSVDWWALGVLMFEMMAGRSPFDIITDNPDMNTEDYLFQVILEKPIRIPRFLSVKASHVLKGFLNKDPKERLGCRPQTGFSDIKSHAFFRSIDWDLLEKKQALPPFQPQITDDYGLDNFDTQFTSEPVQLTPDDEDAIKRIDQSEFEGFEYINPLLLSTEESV
Description: Inhibition of protein kinase C zeta.

The target in another assay is Casein kinase II (Homo sapiens, UniProt P19784+P67870+P68400). Nature of the assay: Inhibition of Casein kinase II. The assay is classed as protein-complex assay.
Chain of Casein kinase II (P67870 whole entry): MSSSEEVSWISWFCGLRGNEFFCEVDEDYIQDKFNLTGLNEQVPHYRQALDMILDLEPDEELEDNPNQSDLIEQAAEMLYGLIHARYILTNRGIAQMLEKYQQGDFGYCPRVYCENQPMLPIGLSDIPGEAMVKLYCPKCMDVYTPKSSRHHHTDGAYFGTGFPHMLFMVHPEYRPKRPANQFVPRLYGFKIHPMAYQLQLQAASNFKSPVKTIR
Chain of Casein kinase II (P68400 whole entry): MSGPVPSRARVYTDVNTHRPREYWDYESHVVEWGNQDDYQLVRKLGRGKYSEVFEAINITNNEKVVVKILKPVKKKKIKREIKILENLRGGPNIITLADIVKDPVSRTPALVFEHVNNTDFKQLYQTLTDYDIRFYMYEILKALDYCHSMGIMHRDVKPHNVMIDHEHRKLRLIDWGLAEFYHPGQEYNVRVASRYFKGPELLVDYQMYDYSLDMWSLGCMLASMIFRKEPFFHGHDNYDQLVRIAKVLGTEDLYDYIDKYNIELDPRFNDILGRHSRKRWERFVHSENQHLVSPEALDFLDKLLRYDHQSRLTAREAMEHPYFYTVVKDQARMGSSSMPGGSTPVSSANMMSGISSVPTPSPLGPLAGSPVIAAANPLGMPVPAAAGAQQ
Chain of Casein kinase II (P19784 whole entry): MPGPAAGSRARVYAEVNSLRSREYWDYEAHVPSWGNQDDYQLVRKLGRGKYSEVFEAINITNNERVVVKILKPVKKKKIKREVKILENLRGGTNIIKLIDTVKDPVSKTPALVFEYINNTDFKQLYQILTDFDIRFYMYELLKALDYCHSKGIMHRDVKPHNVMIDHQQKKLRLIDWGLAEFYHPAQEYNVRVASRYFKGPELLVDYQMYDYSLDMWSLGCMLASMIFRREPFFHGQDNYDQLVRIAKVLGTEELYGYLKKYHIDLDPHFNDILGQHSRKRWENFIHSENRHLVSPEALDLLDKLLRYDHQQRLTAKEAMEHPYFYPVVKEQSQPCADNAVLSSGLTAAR
In assay [4] the target is T3, Serine/threonine-protein kinase D1 (Homo sapiens, UniProt Q15139).
T3 sequence (Q15139 whole entry): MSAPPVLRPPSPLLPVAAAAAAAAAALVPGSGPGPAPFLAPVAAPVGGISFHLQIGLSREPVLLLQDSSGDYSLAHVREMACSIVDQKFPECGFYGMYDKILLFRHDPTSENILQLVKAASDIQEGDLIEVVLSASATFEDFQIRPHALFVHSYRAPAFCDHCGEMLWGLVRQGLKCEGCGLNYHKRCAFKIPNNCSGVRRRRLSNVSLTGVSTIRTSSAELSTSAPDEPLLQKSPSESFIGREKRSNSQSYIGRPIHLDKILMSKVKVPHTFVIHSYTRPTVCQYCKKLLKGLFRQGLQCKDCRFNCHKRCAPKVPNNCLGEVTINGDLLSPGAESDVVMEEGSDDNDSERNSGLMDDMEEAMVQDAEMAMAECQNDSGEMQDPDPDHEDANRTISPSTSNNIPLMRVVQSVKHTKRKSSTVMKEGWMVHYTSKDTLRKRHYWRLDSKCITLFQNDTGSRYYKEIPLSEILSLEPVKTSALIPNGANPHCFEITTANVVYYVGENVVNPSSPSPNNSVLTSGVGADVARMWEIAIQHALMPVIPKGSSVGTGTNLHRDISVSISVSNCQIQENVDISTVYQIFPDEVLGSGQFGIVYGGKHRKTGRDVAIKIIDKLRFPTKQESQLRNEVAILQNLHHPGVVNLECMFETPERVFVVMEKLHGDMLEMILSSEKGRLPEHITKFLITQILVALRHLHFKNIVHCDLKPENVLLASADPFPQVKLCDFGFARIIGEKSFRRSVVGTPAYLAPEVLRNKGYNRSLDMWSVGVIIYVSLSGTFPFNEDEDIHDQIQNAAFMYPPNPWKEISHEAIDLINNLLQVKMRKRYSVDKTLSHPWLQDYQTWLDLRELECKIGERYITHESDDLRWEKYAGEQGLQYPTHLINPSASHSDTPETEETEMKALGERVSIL
Description: Inhibition of Protein kinase C mu.

For assay [5], the target named is Cyclin-dependent kinase 2/cyclin A (Homo sapiens, UniProt P24941). Nature of the assay: Inhibition of Cyclin-dependent kinase 2-cyclin A. It counts as protein-complex assay.
Assay [6] addresses Dual specificity mitogen-activated protein kinase kinase; MEK1/2 (Homo sapiens, UniProt P36507+Q02750). Nature of the assay: Inhibition of Mitogen activated protein kinase kinase. It counts as protein assay.
Assay [7] concerns the target Cyclin-dependent kinase 2/cyclin E (Homo sapiens, UniProt P24941). Description: Inhibition of Cyclin-dependent kinase 2-cyclin E. The assay is classed as protein-complex assay.
Assay [8] in a line: Inhibition of cAMP dependent protein kinase, PKA.
The target in assay [9] is Protein kinase C alpha type (Homo sapiens, UniProt P17252). Nature of the assay: Inhibition of protein kinase C alpha.
Assay [10] in a line: Inhibition of cGMP-dependent protein kinase.
Assay [11] deals with Protein kinase C gamma type (Homo sapiens, UniProt P05129). Nature of the assay: Inhibition of Protein kinase C gamma.
The target of assay [12] is Protein kinase C delta type (Homo sapiens, UniProt Q05655). Nature of the assay: Inhibition of protein kinase C delta.
Chain of Protein kinase C delta type (Q05655 whole entry): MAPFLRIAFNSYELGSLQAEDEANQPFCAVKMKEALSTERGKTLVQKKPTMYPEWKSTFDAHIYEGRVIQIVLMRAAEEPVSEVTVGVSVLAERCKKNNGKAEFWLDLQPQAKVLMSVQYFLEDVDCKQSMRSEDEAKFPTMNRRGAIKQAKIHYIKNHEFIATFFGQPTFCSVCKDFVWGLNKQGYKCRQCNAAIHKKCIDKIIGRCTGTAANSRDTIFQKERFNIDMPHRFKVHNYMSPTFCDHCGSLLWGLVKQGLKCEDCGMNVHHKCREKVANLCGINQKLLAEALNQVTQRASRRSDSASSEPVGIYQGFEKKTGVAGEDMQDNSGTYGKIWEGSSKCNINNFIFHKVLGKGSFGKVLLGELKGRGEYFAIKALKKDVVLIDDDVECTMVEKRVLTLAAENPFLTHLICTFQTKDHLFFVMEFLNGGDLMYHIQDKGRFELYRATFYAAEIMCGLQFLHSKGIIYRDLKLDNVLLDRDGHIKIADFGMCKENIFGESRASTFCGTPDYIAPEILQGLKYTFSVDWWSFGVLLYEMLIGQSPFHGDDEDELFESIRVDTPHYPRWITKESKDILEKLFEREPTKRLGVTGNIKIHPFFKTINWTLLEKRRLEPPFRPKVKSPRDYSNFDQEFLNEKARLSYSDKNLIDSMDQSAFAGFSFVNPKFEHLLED
The target of assay [13] is Protein kinase C beta type (Homo sapiens, UniProt P05771). Description: Inhibition of Protein kinase C beta.
The target in assay [14] is RAF proto-oncogene serine/threonine-protein kinase (Homo sapiens, UniProt P04049). Nature of the assay: Inhibition of RAF proto-oncogene serine/threonine-protein kinase (c-raf).
Chain of RAF proto-oncogene serine/threonine-protein kinase (P04049 whole entry): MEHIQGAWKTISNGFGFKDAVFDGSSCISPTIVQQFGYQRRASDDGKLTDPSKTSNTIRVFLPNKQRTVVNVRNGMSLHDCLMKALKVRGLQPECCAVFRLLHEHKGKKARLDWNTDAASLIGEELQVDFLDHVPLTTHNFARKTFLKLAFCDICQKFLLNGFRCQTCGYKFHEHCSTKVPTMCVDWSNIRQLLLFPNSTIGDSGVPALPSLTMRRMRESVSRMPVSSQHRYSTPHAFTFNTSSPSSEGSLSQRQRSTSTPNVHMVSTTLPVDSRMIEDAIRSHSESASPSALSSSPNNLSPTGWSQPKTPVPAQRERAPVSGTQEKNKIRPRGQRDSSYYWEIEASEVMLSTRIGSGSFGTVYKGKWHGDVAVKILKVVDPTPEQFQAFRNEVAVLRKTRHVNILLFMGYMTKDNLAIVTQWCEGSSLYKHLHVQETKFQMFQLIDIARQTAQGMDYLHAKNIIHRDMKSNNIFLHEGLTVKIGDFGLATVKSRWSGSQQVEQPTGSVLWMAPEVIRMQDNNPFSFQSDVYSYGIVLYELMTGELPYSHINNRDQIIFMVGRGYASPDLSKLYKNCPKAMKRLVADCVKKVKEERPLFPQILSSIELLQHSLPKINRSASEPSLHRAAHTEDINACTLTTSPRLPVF
Assay [15] deals with Cyclin-dependent kinase 4/cyclin D1 (Homo sapiens, UniProt P11802). Description: Inhibition of Cyclin-dependent kinase 4-cyclin D1.
Chain of Cyclin-dependent kinase 4/cyclin D1 (P11802 whole entry): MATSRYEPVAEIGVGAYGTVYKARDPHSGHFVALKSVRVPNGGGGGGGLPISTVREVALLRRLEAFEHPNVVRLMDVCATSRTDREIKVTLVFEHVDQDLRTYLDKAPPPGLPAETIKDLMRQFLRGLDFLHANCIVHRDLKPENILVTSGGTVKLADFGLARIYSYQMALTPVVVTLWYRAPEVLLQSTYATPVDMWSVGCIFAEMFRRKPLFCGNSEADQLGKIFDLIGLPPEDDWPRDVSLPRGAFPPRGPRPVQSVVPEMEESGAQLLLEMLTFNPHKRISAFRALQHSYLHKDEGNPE
Chain of Cyclin-dependent kinase 4/cyclin D1 (P24385 whole entry, further chain): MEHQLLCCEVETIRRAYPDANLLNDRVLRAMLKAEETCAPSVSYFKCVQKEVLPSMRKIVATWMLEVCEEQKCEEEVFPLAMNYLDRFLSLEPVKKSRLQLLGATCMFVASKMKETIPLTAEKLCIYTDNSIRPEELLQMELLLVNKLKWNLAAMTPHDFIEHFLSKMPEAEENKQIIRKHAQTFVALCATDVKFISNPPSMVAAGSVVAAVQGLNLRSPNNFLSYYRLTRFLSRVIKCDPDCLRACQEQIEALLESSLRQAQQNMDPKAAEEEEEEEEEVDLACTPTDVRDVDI
For assay [16], the target named is Serine/threonine-protein kinase pim-1 (Homo sapiens, UniProt P11309). Description: Inhibition of Protein kinase PIM-1.
Chain of Serine/threonine-protein kinase pim-1 (P11309 whole entry): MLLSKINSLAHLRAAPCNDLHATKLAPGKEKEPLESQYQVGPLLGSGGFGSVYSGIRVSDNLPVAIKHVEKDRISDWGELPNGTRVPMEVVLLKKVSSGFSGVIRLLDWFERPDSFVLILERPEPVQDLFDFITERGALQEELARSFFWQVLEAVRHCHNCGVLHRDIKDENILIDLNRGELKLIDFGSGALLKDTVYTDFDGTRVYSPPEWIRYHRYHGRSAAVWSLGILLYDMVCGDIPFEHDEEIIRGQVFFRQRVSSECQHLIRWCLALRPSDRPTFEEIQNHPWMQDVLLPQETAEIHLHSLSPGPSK

A value given as a limit tells only on which side of the number the result lay.

As usually defined, the IC50 is the midpoint of a concentration-inhibition curve. Higher therefore signals weaker potency in that assay.

Turning to `CCCCc1c(-c2ccc(O)cc2)[nH]c2nccnc12` [ALOISINE A], the IC50 was over 100 µM at Casein kinase I; 3.3 µM in [1]; over 100 µM in assay [2]; over 100 µM in assay [3]; over 100 µM against Casein kinase II; over 100 µM in assay [4]. The IC50 in assay [5] is 0.12 µM; in assay [6] it was over 100 µM; in assay [7] it was 0.4 µM; in assay [8], 100 µM; in assay [9], over 100 µM; in [10] it was 100 µM. Further, the IC50 is over 100 µM in assay [11]; over 100 µM in assay [12]; over 100 µM in [13]; over 100 µM in [14]; over 100 µM in assay [15]; over 10 µM in assay [16].

Values taken from ChEMBL document CHEMBL1145099, “Aloisines, a new family of CDK/GSK-3 inhibitors. SAR study, crystal structure in complex with CDK2, enzyme selectivity, and cellular effects” (J Med Chem, 2003).
